Key:
[1] = tested on: Numb-associated kinases (NAKs); test: pAP2 (phospho-Thr156 μ2 subunit of AP2) signal by ICC in SK-Mel2 cells; format: cell-based; details: 10 μM for 3 hours
Protocol: FIGS. 12A-12H include fluorescent micrographs and graphs showing that α-Syn colocalizes with phosphorylated AP2 and PIP2 on clathrin-coated pits. (12A) SK-Mel2 cells were processed for the detection of the immunoreactive signals of endogenous α-Syn (ab 21976 ab, red), phosphorylated Thr156 μ2 subunit of AP2 (pAP2; gray) and PI4,5P2 (green) by immunocytochemistry (ICC). Bar=10 μm. (12B) SK-Mel2 cells treated with LP-935509 (10 μM, for 3 hours), to inhibit the phosphorylation of the μ2 subunit of AP2 and processed for ICC as in (12A). Bar=[…]. (12C) SK-Mel2 cells infected with lentivirus encoding shSNCA to silence α-Syn expression. Cells were treated with LP-935509 inhibitor as in (12B) and processed for ICC. Bar=[…]. (12D) SK-Mel2 cells as in (12A), however, immunoreacted for PI3,4P2 detection (green). Bar=[…]. […] Cells analyzed by FACS to immunodetect PI4,5P2 levels. […] (12G) Cells analyzed by FACS as in (12F) to detect PI3,4P2 signal. […] Colocalization of the signal obtained for α-Syn with the specified PIP was quantified and normalized to total α-Syn positive spots. […]
Phosphorylation at Thr156 of μ2 subunit of the clathrin adaptor AP2 starts following its binding to PI4,5P2 at the initiation of a CCP and throughout vesicle lifetime. The inventors analyzed SK-Mel2 cells, which express detectable levels of endogenous α-Syn protein. […]

[2] = tested on: PI3K/AKT pathway; test: Treatments in disease models with inhibitors of the PI3K/AKT pathway
Description: The PI3K/AKT pathway is activated in brains affected with PD and models thereof. Activated PI3K/AKT is exemplified by increases in PI3-Ps, including PI3,4,5P3 and PI3,4P2 that are required for the phosphorylation and activation of AKT phosphorylation at Thr308 and Ser 473. α-Syn is involved in activation of PI3K/AKT pathway. PI3K/AKT activation by α-Syn involves protein palmitoylation. […] Inhibitors of the PI3K/AKT pathway are useful to inhibit α-Syn′ toxicity. These may include Alpelisib and additional inhibitors of PI3K class I that act peripherally not crossing the blood brain barrier (BBB); or GDC-0084 and similar agents that can cross the BBB and act at the central nervous system. Or inhibitors of class II PI3K, for example, HY-151491, HY-151492 or HY-151490.α-Syn enhances PI3K activity by enhancing protein palmitoylation, including Ras palmitoylation that regulates PI3K activity. Class I and class II PI3Ks enzymes harbor a Ras binding domain and thus are affected by α-Syn. Class I and class II PI3Ks enzymes are activated by α-Syn and are targets for PD therapy. Inhibitors for class I and class II PI3Ks may be used for drug repurposing

[3] = tested on: APT1/APT2 depalmitoylases; test: PIP3/PIP2 ratio by FACS in α-Syn expressing HepG2 cells with depalmitoylase inhibitors; format: cell-based; details: serum starved 4 hours, 10 μM each
Protocol: ML348 and ML349, inhibit the depalmitoylating enzymes Acyl protein thioesterase 1 and 2 (APT-1, APT-2, respectively). HepG2 cells were infected to express a mock vector (EV) or α-Syn. 5 days post infection, cells were serum starved for 4 hours in the presence of the indicated inhibitors: 2-Bromo-Palmitate (2BP 50 μM, an inhibitor of palmitoylation), ML348 and ML349 (10 μM each). PIP levels determined by FACS as in FIG. 4. The ratio of PI3,4,5P3 (PIP3) to PI4,5P2 (PIP2) is presented. A representative experiment out of n=2 highly similar experiments. Mean±SE of the replicates within one experiment, n>2,000 gated cells.

[4] = tested on: PI3K/AKT pathway; test: PIP3/PIP2 ratio (FACS) and PSer473/total AKT (Western blot) in HepG2 cells expressing α-Syn; format: cell-based; details: inhibitor 100 nM for 2 hours, combined with CRISPR/CAS for PI3KCA or PI3KCB
Protocol: FIGS. 25A-25D include vertical bar graphs showing that silencing either PI3KCA or PI3KCB interfere with α-Syn-mediated AKT activation. (25A) HepG2 cells were co-infected with an empty vector (EV) or α-Syn expressing vector together with a CRISPR/CAS vector to silence either PI3KCA (CA, p110α) or PI3KCB (CB, p110β), or a control vector (CT). 72 hours post infection, cells were processed for the detection of PIPs by FACS or analyzed by Western blotting for the detection of AKT. […] (25B) The effect of PIK75 (100 nM, PI3KCA inhibitor) or TGX 221 (100 nM, PIKCB inhibitor) on PIP3/PIP2 ratio (left) or PSer473/total AKT ratio (right) as a function of α-Syn expression. Inhibitors were added for 2 hours before cells were lysed. […] Results are mean±SD of n=3-4 trials.

[5] = tested on: muscarinic receptors
Protocol: To confirm the specificity of the PI4,5P2 signal that the inventors detected using anti PI4,5P2 Ab in cortical neurons, PI4,5P2 signal depletion following phospholipase C (PLC) activation was determined. […] Control cells were conditioned and treated in parallel but without the drug. Cells were fixed and immunoreacted with anti PI4,5P2 ab (FIG. 10A).

[6] = tested on: HEK 293T cells; test: 568-Tf (transferrin) endocytosis with the rapamycin-inducible phosphatase; format: cell-based; details: control cultures without Inp45p expression
Protocol: (§1) FIGS. 15A-15E include fluorescent micrographs, a micrograph, and graphs showing that the enhancing effect of α-Syn on CME is PI4,5P2 dependent. (15A) HEK 293T cells, transfected to co-express the three plasmids: Lyn-FRB, FKBP-CFP-Inp54p and WT α-Syn. On day of experiment, cells were serum starved for 90 minutes and then incubated for 7 minutes with 568-Tf and rapamycin (500 nM) to induce the recruitment of the Inp45p phosphatase (P-ase) to the plasma membrane along with internalization of 568-Tf. Control cells were treated in parallel with DMSO (0.5% v/v). Cells were then acid-washed, fixed and immunoreacted with anti α-Syn ab (MJFR1; Green). Direct fluorescence for CFP (P-ase; Grey) and 568-Tf (Red). (15B) HEK 293T cells expressing Lyn-FRB and FKBP-CFP-Inp54p were treated either with rapamycin or DMSO as described in (15A), followed by immunoreaction with anti PI4,5P2 ab (Echelon). A quantification of PI4,5P2 signal is shown (n>9 cells per treatment; mean±SE; * P<0.01 t-test). (15C) Graph showing quantification of internalized 568-Tf signal in cells transfected and treated as in (15A). Cells transfected with a mock vector (white bars, squares) or α-Syn (black bars, circles). […] Protein samples were analyzed by a western blot, immunoreacted with anti-Nir2 ab (Abcam). […] Sister cultures were immunoreacted with anti PI4,5P2 ab and analyzed by FACS. […]

[7] = tested on: HEK 293T cells; test: PI4,5P2 levels by ICC after rapamycin-induced recruitment of the Inp45p phosphatase to the plasma membrane; format: cell-based; details: HEK 293T expressing Lyn-FRB and FKBP-CFP-Inp54p, rapamycin 500 nM; DMSO treated cells set at 100%
Protocol: as §1

## COc1ncccc1-c1cnn2ccc(N3CCN(C(=O)OC(C)C)CC3)nc12 [LP-935509]
[1]
  colocalization of α-Syn and pAP2: no obvious colocalization
  pAP2 signal: dramatically reduced

## NC1(c2ccc(-c3nc4ccn5c(=O)[nH]nc5c4cc3-c3ccccc3)cc2)CCC1 [MK2206]
[2]
  aberrant activation of the PI3K/AKT pathway by α-Syn: reduce the aberrant activation of this pathway by α-Syn

## O=C(CN1CCN(C(=O)c2ccco2)CC1)Nc1cc(C(F)(F)F)ccc1Cl [ML348]
[3]
  effects of α-Syn to enhance PIP3 levels (PIP3 to PIP2 ratio): interfere with the effects of α-Syn to enhance PIP3 levels

## COc1ccc(N2CCN(C(=O)c3cc4c(s3)-c3ccccc3S(=O)(=O)C4)CC2)cc1 [ML349]
[3]
  effects of α-Syn to enhance PIP3 levels (PIP3 to PIP2 ratio): interfere with the effects of α-Syn to enhance PIP3 levels

## Cc1ccc([N+](=O)[O-])cc1S(=O)(=O)N(C)/N=C/c1cnc2ccc(Br)cn12 [PIK75]
[2]
  aberrant activation of the PI3K/AKT pathway by α-Syn: reduce the aberrant activation of this pathway by α-Syn
[4]
  α-Syn-mediated increases in PI3K/AKT pathway activation (PIP3/PIP2 ratio, PSer473/total AKT): inhibition of α-Syn-mediated increases in PI3K/AKT pathway activation

## Cc1cc(C(C)Nc2ccccc2)c2nc(N3CCOCC3)cc(=O)n2c1 (stereo not drawn) [TGX 221]
[2]
  aberrant activation of the PI3K/AKT pathway by α-Syn: reduce the aberrant activation of this pathway by α-Syn
[4]
  α-Syn-mediated increases in PI3K/AKT pathway activation (PIP3/PIP2 ratio, PSer473/total AKT): inhibition of α-Syn-mediated increases in PI3K/AKT pathway activation

## CC[C@@H]1C(=O)OC[C@@H]1Cc1cncn1C [pilocarpine]
[5]
  PI4,5P2 signal following PLC activation: loss of PI4,5P2 signal

## CO[C@H]1C[C@@H]2CC[C@@H](C)[C@@](O)(O2)C(=O)C(=O)N2CCCC[C@H]2C(=O)O[C@H]([C@H](C)C[C@@H]2CC[C@@H](O)[C@H](OC)C2)CC(=O)[C@H](C)/C=C(\C)[C@@H](O)[C@@H](OC)C(=O)[C@H](C)C[C@H](C)/C=C/C=C/C=C/1C [rapamycin]
[6]
  α-Syn-induced CME (568-Tf internalization): no effect
[7]
  PI4,5P2 levels: 26%
